In brackets after ≈: the same amount, converted by molar mass.
How the values were obtained:
[1] = Antagonist activity at rat TRPA1 expressed in CHO cells assessed as cinnamaldehyde-induced calcium flux measured after 90 mins by FLIPR assay; assay type: cell-based; conditions: 1.5 h
[2] = Antagonist activity at human TRPA1 expressed in CHO cells assessed as cinnamaldehyde-induced calcium flux measured after 90 mins by FLIPR assay; assay type: cell-based; conditions: 1.5 h
[3] = Lipophilicity, logD of compound; assay type: physicochemical; conditions: octanol/water
[4] = Protein binding in human plasma; assay type: ADME, cell-free; conditions: read-out: PPB (converted)
[5] = Protein binding in rat plasma; assay type: ADME, cell-free; conditions: read-out: PPB (converted)
[6] = Half life in rat at 1 mg/kg; assay type: ADME, organism-based; conditions: in vivo
Rattus norvegicus = species on record: Rattus norvegicus; assay: Antinociceptive activity against AITC-induced rat pain model assessed as nocifensive behaviour by measuring unbound concentration; assay type: functional, organism-based
[7] = Unbound Volume of distribution at steady state in rat at 1 mg/kg; assay type: ADME, organism-based; conditions: in vivo
[8] = Volume of distribution at steady stare in rat at 1 mg/kg; assay type: ADME, organism-based; conditions: in vivo, read-out: Vdss
[9] = Clearance in rat at 1 mg/kg; assay type: ADME, organism-based; conditions: in vivo
[10] = Apparent permeability across apical to basolateral side in MDCK cells; assay type: ADME, cell-based, Canis lupus familiaris; conditions: dog, read-out: permeability
[11] = Kinetic solubility of the compound; assay type: physicochemical; conditions: for solubility kinetic: read-out: Kinetic_solubility
[12] = Oral bioavailability in rat at 1 mg/kg; assay type: ADME, organism-based; conditions: in vivo
[13] = Metabolic stability in rat hepatocytes assessed as clearance; assay type: ADME, cell-based, Hepatocyte
[14] = biological target: Transient receptor potential cation channel subfamily A member 1 (Rattus norvegicus) (UniProt Q6RI86); assay: In vivo antagonist activity at TRPA1 in AITC-induced rat pain model assessed as nocifensive behaviour at 0.36 ratio of free plasma concentration to IC50 for rat […]; assay type: functional, organism-based; conditions: concentration not given here
[15] = biological target: Transient receptor potential cation channel subfamily A member 1 (Rattus norvegicus) (UniProt Q6RI86); assay: In vivo antagonist activity at TRPA1 in AITC-induced rat pain model assessed as nocifensive behaviour at 1.21 ratio of free plasma concentration to IC50 for rat […]; assay type: functional, organism-based; conditions: concentration not given here
[16] = biological target: Transient receptor potential cation channel subfamily A member 1 (Rattus norvegicus) (UniProt Q6RI86); assay: In vivo antagonist activity at TRPA1 in AITC-induced rat pain model assessed as nocifensive behaviour at 2.97 ratio of free plasma concentration to IC50 for rat […]; assay type: functional, organism-based; conditions: concentration not given here
[17] = biological target: Transient receptor potential cation channel subfamily A member 1 (Rattus norvegicus) (UniProt Q6RI86); assay: In vivo antagonist activity at TRPA1 in AITC-induced rat pain model assessed as nocifensive behaviour at 4.45 ratio of free plasma concentration to IC50 for rat […]; assay type: functional, organism-based; conditions: concentration not given here
[18] = Metabolic stability in human liver microsomes assessed as clearance by LC/MS-MS analysis; assay type: ADME, Microsome
[19] = Metabolic stability in rat liver microsomes assessed as clearance by LC/MS-MS analysis; assay type: ADME, Microsome
[20] = biological target: Transient receptor potential cation channel subfamily A member 1 (Rattus norvegicus) (UniProt Q6RI86); assay: In vivo antagonist activity at TRPA1 in AITC-induced rat pain model assessed as nocifensive behaviour at 0.76 ratio of free plasma concentration to IC50 for rat […]; assay type: functional, organism-based; conditions: concentration not given here
[21] = biological target: Transient receptor potential cation channel subfamily A member 1 (Rattus norvegicus) (UniProt Q6RI86); assay: In vivo antagonist activity at TRPA1 in AITC-induced rat pain model assessed as nocifensive behaviour at 8 ratio of free plasma concentration to IC50 for rat […]; assay type: functional, organism-based
[22] = biological target: Transient receptor potential cation channel subfamily A member 1 (Rattus norvegicus) (UniProt Q6RI86); assay: In vivo antagonist activity at TRPA1 in AITC-induced rat pain model assessed as nocifensive behaviour at 21.57 ratio of free plasma concentration to IC50 for rat […]; assay type: functional, organism-based; conditions: concentration not given here
[23] = biological target: Transient receptor potential cation channel subfamily A member 1 (Rattus norvegicus) (UniProt Q6RI86); assay: In vivo antagonist activity at TRPA1 in AITC-induced rat pain model assessed as nocifensive behaviour at 44.77 ratio of free plasma concentration to IC50 for rat […]; assay type: functional, organism-based; conditions: concentration not given here
[24] = biological target: Transient receptor potential cation channel subfamily A member 1 (Rattus norvegicus) (UniProt Q6RI86); assay: In vivo antagonist activity at TRPA1 in AITC-induced rat pain model assessed as nocifensive behaviour at 0.17 ratio of free plasma concentration to IC50 for rat […]; assay type: functional, organism-based; conditions: concentration not given here
[25] = biological target: Transient receptor potential cation channel subfamily A member 1 (Rattus norvegicus) (UniProt Q6RI86); assay: In vivo antagonist activity at TRPA1 in AITC-induced rat pain model assessed as nocifensive behaviour at 0.53 ratio of free plasma concentration to IC50 for rat […]; assay type: functional, organism-based; conditions: concentration not given here
[26] = biological target: Transient receptor potential cation channel subfamily A member 1 (Rattus norvegicus) (UniProt Q6RI86); assay: In vivo antagonist activity at TRPA1 in AITC-induced rat pain model assessed as nocifensive behaviour at 3.17 ratio of free plasma concentration to IC50 for rat […]; assay type: functional, organism-based; conditions: concentration not given here
[27] = biological target: Transient receptor potential cation channel subfamily A member 1 (Rattus norvegicus) (UniProt Q6RI86); assay: In vivo antagonist activity at TRPA1 in AITC-induced rat pain model assessed as nocifensive behaviour at 0.10 ratio of free plasma concentration to IC50 for rat […]; assay type: functional, organism-based; conditions: concentration not given here
[28] = biological target: Transient receptor potential cation channel subfamily A member 1 (Rattus norvegicus) (UniProt Q6RI86); assay: In vivo antagonist activity at TRPA1 in AITC-induced rat pain model assessed as nocifensive behaviour at 0.86 ratio of free plasma concentration to IC50 for rat […]; assay type: functional, organism-based; conditions: concentration not given here
[29] = biological target: Transient receptor potential cation channel subfamily A member 1 (Rattus norvegicus) (UniProt Q6RI86); assay: In vivo antagonist activity at TRPA1 in AITC-induced rat pain model assessed as nocifensive behaviour at 2.94 ratio of free plasma concentration to IC50 for rat […]; assay type: functional, organism-based; conditions: concentration not given here
[30] = biological target: Transient receptor potential cation channel subfamily A member 1 (Rattus norvegicus) (UniProt Q6RI86); assay: In vivo antagonist activity at TRPA1 in AITC-induced rat pain model assessed as nocifensive behaviour at 12.67 ratio of free plasma concentration to IC50 for rat […]; assay type: functional, organism-based; conditions: concentration not given here
[31] = biological target: Transient receptor potential cation channel subfamily A member 1 (Rattus norvegicus) (UniProt Q6RI86); assay: In vivo antagonist activity at TRPA1 in AITC-induced rat pain model assessed as nocifensive behaviour at 43.69 ratio of free plasma concentration to IC50 for rat […]; assay type: functional, organism-based; conditions: concentration not given here
[32] = Stability in rat plasma assessed as compound remaining after 4 hrs; assay type: ADME, cell-free; conditions: read-out: Stability
[33] = Stability in human plasma assessed as compound remaining after 4 hrs; assay type: ADME, cell-free; conditions: read-out: Stability

Sequence of Transient receptor potential cation channel subfamily A member 1 (Rattus norvegicus) (Q6RI86 whole entry): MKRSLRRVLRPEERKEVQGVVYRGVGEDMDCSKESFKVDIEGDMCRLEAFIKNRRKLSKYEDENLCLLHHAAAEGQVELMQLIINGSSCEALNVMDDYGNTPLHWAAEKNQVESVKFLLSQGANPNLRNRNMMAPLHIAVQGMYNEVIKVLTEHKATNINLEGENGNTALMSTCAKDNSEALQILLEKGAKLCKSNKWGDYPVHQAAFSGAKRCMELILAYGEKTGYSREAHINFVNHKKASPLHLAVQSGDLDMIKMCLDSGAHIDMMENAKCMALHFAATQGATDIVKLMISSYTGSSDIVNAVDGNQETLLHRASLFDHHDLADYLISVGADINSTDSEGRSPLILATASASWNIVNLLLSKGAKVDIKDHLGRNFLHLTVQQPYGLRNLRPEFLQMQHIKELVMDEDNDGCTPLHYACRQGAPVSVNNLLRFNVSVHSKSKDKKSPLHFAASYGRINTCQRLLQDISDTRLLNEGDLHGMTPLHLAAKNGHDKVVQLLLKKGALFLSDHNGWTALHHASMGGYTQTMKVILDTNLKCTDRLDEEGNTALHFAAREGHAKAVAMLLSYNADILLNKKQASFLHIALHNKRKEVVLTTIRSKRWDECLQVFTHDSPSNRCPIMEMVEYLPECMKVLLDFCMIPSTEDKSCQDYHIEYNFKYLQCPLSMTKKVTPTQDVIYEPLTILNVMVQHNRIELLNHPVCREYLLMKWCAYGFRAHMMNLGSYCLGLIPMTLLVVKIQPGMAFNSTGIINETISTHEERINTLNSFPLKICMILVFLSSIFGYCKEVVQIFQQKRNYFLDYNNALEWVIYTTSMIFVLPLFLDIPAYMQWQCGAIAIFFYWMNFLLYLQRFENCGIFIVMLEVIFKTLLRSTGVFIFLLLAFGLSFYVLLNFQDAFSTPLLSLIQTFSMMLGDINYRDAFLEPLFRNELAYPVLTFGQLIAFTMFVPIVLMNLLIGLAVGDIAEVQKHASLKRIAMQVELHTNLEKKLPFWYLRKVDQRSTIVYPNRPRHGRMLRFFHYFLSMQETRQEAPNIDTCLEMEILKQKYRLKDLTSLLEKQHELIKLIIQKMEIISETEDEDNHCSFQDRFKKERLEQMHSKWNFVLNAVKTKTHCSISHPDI

Cn1cnc2ncn(Cc3nc([C@H]4[C@@H]5CN(c6cccc(Cl)c6)C[C@@H]54)no3)c(=O)c21
IC50 [1]: 7.9 nM
IC50 [2]: 2.9 nM
logD [3]: 2.9
fraction unbound [4]: 0.011
fraction unbound [5]: 0.018
half-life [6]: 6.4 h
EC50 (Rattus norvegicus): 7.9 nM
Vduss [7]: 128 L/kg
Vd [8]: 2.3 L/kg
clearance [9]: 4.5 mL/min/kg
Papp A→B [10]: 15.5 ×10⁻⁶ cm/s
Kinetic_solubility [11]: 97 µM
bioavailability [12]: 20%
CLhep predicted [13]: 35 mL/min/kg
inhibition [14]: 12%
inhibition [15]: 64%
inhibition [16]: 99%
inhibition [17]: 99%

Cn1cnc2ncn(Cc3nc([C@H]4[C@@H]5C=C(c6ccccc6)C[C@@H]54)no3)c(=O)c21
IC50 [2]: 1.9 nM
logD [3]: 2.7
solubility kinetic [11]: 1.4 µM (≈ 0.541 µg/mL)

Cc1ncn2ncn(Cc3nc([C@H]4[C@@H]5CN(c6cccc(Cl)c6)C[C@@H]54)no3)c(=O)c12
CLhep predicted [18]: 14 mL/min/kg
CLhep predicted [19]: 27 mL/min/kg
IC50 [2]: 50 nM
logD [3]: 2.6

Cn1cnc2ncn(Cc3nn(C[C@H](F)c4ccc(Cl)cc4)c(=O)o3)c(=O)c21
CLhep predicted [18]: 5.6 mL/min/kg
CLhep predicted [19]: 28 mL/min/kg
IC50 [1]: 18 nM
IC50 [2]: 20 nM
logD [3]: 1.2
fraction unbound [4]: 0.334
half-life [6]: 1.4 h
EC50 (Rattus norvegicus): 390 nM
Vduss [7]: 3.14 L/kg
Vd [8]: 1.3 L/kg
clearance [9]: 17 mL/min/kg
Papp A→B [10]: 9 ×10⁻⁶ cm/s
solubility kinetic [11]: 120 µM (≈ 48.6 µg/mL)
bioavailability [12]: 53%
CLhep predicted [13]: 24 mL/min/kg
inhibition [20]: 20%
inhibition [21]: 20%
inhibition [22]: 37%
inhibition [23]: 100%

Cn1cnc2ncn(Cc3nn([C@H]4C[C@H](Oc5cccc(Cl)c5)C4)c(=O)o3)c(=O)c21
CLhep predicted [18]: 6 mL/min/kg
CLhep predicted [19]: 11 mL/min/kg
IC50 [2]: 7.3 nM
logD [3]: 2.2

Cc1cnn2ncn(Cc3nc([C@H]4[C@@H]5CN(c6cccc(Cl)c6)C[C@@H]54)no3)c(=O)c12
CLhep predicted [18]: 15 mL/min/kg
CLhep predicted [19]: 32 mL/min/kg
IC50 [1]: 8.2 nM
IC50 [2]: 8.1 nM
logD [3]: 3
fraction unbound [4]: 0.009
fraction unbound [5]: 0.02
half-life [6]: 2.5 h
EC50 (Rattus norvegicus): 6.2 nM
Vduss [7]: 140 L/kg
Vd [8]: 2.8 L/kg
clearance [9]: 15 mL/min/kg
Papp A→B [10]: 20.7 ×10⁻⁶ cm/s
solubility kinetic [11]: 13 µM (≈ 5.51 µg/mL)
bioavailability [12]: 32%
CLhep predicted [13]: 43 mL/min/kg
inhibition [24]: 36%
inhibition [25]: 63%
inhibition [26]: 87%
inhibition [27]: 30%

Cn1cnc2ncn(Cc3nc([C@@H]4[C@@H]5Cc6c(Cl)cccc6[C@@H]54)no3)c(=O)c21
IC50 [2]: 32 nM
logD [3]: 2.6
solubility kinetic [11]: < 1 µM

O=c1c2cccnc2cnn1Cc1nc([C@H]2[C@@H]3CN(c4cc(Cl)ccn4)C[C@@H]32)no1
CLhep predicted [18]: 14 mL/min/kg
CLhep predicted [19]: 27 mL/min/kg
IC50 [2]: 54 nM
logD [3]: 2.7

Cn1cnc2ncn(Cc3nn([C@@H]4CC[C@@H](Oc5cccc(F)c5)C4)c(=O)o3)c(=O)c21
CLhep predicted [18]: 8 mL/min/kg
CLhep predicted [19]: 24 mL/min/kg
IC50 [2]: 410 nM
logD [3]: 1.8

Cn1cnc2ncn(Cc3nc([C@H]4[C@@H]5CN(c6cc(Cl)ccn6)C[C@@H]54)no3)c(=O)c21
IC50 [1]: 18 nM
IC50 [2]: 25 nM
logD [3]: 1.8
fraction unbound [4]: 0.07
fraction unbound [5]: 0.087
half-life [6]: 1.8 h
EC50 (Rattus norvegicus): 220 nM
Vduss [7]: 20.7 L/kg
Vd [8]: 1.8 L/kg
clearance [9]: 12 mL/min/kg
Papp A→B [10]: 17.3 ×10⁻⁶ cm/s
solubility kinetic [11]: 97 µM (≈ 41.2 µg/mL)
bioavailability [12]: 39%
CLhep predicted [13]: 36 mL/min/kg
inhibition [28]: 59%
inhibition [29]: 64%
inhibition [30]: 48%
inhibition [31]: 94%

Cn1cnc2ncn(Cc3nn([C@H]4CC[C@H](c5ccc(Cl)cc5)CC4)c(=O)o3)c(=O)c21
CLhep predicted [18]: 4.3 mL/min/kg
CLhep predicted [19]: 19 mL/min/kg
IC50 [2]: > 20000 nM
logD [3]: 2.6

Cn1cnc2ncn(Cc3nn(CCCOc4cccc(Cl)c4)c(=O)o3)c(=O)c21
CLhep predicted [18]: 16 mL/min/kg
CLhep predicted [19]: 44 mL/min/kg
IC50 [2]: 14 nM
logD [3]: 1.3

Cn1cnc2ncn(Cc3nc([C@@H]4CO[C@@H](c5ccc(F)cc5)C4)no3)c(=O)c21
CLhep predicted [18]: 4.3 mL/min/kg
CLhep predicted [19]: 9 mL/min/kg
IC50 [2]: 7.6 nM

Cn1cnc2ncn(Cc3nn([C@@H]4CC[C@@H](c5ccc(Cl)cc5)C4)c(=O)o3)c(=O)c21
CLhep predicted [18]: 12 mL/min/kg
CLhep predicted [19]: 36 mL/min/kg
IC50 [2]: 9.6 nM
logD [3]: 2.4

O=c1c2cccnc2ncn1Cc1nc([C@H]2[C@@H]3CN(c4cc(Cl)ccn4)C[C@@H]32)no1
CLhep predicted [18]: 10 mL/min/kg
CLhep predicted [19]: 13 mL/min/kg
IC50 [2]: 75 nM
logD [3]: 2.4

Cn1cnc2ncn(Cc3nc(CCc4ccc(Cl)cc4)no3)c(=O)c21
CLhep predicted [18]: 12 mL/min/kg
CLhep predicted [19]: 35 mL/min/kg
IC50 [1]: 80 nM
IC50 [2]: 100 nM
logD [3]: 1.9

Cn1cnc2ncn(Cc3nn(CCOc4cccc(Cl)c4)c(=O)o3)c(=O)c21
CLhep predicted [18]: 11 mL/min/kg
CLhep predicted [19]: 34 mL/min/kg
IC50 [2]: 4600 nM
logD [3]: 1.3

Cn1cnc2ncn(Cc3nn([C@@H]4CO[C@@H](c5ccc(Cl)cc5)C4)c(=O)o3)c(=O)c21
CLhep predicted [18]: 9.5 mL/min/kg
CLhep predicted [19]: 23 mL/min/kg
IC50 [2]: 2 nM
logD [3]: 1.6
remaining at 4 h [32]: 61%
remaining at 4 h [33]: 76%

Cn1cnc2ncn(Cc3nc([C@H]4[C@@H]5C[C@H](c6ccccc6)C[C@@H]54)no3)c(=O)c21
IC50 [2]: 1900 nM
logD [3]: 2.7
solubility kinetic [11]: 54 µM (≈ 21 µg/mL)
